Key:
GSK-3β = GSK-3β (Homo sapiens, UniProt P49841); assay: GSK-3 kinase assay (C1), GSK-3β; assay type: biochemical; conditions: 1 μM ATP; for IC50: read-out: C1 Score β
Outline: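 Radiometric SPA at room temperature in 25 mM Tris pH 7.4 with 10 mM MgCl2, 1 mM DTT, 5.7 ng/μl GSK-3β or 0.25 ng/μl GSK-3α, 5 μM biotinylated CREB peptide and 1 μM ATP plus ^33P-ATP. Stopped after 1 h; IC50 from dose-response versus no-compound control, reported as pIC50 score bands.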

CDK6/cyclinD3 human = CDK6/cyclinD3 human (Homo sapiens, UniProt Q00534); assay: Kinase profiling C3.7 CDK6/cyclinD3 human; assay type: biochemical; conditions: CDK6/cyclinD3, test concentration of 10^−6 M
Chain of CDK6/cyclinD3 human (Q00534 whole entry): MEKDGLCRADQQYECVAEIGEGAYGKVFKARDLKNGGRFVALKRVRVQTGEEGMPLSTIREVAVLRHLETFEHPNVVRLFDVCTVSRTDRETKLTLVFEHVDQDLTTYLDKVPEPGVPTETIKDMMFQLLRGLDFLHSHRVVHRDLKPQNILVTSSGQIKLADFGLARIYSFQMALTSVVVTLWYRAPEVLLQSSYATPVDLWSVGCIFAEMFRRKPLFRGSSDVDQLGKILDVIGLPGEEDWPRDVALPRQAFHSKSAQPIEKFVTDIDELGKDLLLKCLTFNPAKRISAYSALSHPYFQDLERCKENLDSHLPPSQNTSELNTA
Chain of CDK6/cyclinD3 human (P30281 whole entry partner): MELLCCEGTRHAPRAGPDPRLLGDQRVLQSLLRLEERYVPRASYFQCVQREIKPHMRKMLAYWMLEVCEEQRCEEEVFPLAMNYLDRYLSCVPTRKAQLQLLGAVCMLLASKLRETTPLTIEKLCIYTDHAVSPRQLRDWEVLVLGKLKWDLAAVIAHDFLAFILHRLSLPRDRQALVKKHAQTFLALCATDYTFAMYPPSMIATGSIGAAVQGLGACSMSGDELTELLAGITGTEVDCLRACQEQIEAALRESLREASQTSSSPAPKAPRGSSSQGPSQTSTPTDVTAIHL
Experimental: The in vitro inhibition of a panel of kinases was assessed using either the glass-fiber filter technology as described by Davies, S. P. et al., Biochem J. (2000), 351; p. 95-105. In the glass-fiber filter technology the activity of the kinase of interest is measured using an appropriate substrate that is incubated with the aforementioned kinase protein in the presence of (^33P) radiolabeled ATP. (^33P) Phosporylation of the substrate is subsequently measured as radioactivity bound on a glassfiber-filter.
All kinases are pre-diluted to a 10× working concentration prior to addition into the assay. The composition of the dilution buffer for each kinase is detailed below.
All substrates are dissolved and diluted to working stocks in de-ionised water, apart from histone H1 that is stored in 10× working stock in 20 mM MOPS pH 7.4.
In a final reaction volume of 25 μl, CDK6/cyclinD3 human (5-10 mU) is incubated with 8 mM MOPS pH 7.0, 0.2 mM EDTA, 0.1 mg/ml histone H1, 10 mM MgAcetate and [γ-^33P-ATP] (specific activity approx. 500 cpm/pmol, concentration as required). The reaction is initiated by the addition of the MgATP mix. After incubation for 40 minutes at room temperature, the reaction is stopped by the addition of 5 μl of a 3% phosphoric acid solution. 10 μl of the reaction is then spotted onto a P30 filtermat and washed three times for 5 minutes in 75 mM phosphoric acid and once in methanol prior to drying and scintillation counting.

Chain of GSK-3β (P49841 whole entry, species assumed): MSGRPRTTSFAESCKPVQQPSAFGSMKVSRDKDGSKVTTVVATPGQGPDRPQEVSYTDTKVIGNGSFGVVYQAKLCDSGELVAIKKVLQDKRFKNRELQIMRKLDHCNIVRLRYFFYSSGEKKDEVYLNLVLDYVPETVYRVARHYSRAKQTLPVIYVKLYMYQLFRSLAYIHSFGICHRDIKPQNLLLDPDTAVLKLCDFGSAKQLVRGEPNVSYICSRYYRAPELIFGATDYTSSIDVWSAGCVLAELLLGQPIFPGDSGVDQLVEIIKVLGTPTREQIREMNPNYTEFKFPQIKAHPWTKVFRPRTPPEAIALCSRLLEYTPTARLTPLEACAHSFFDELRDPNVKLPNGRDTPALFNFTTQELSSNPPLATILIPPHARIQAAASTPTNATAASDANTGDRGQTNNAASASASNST

Row | SMILES | IC50 (GSK-3β) | C3.7 score (CDK6/cyclinD3 human) | C1 Score β (GSK-3β) | melting point
1 | CN1CC(=O)NCCCc2cc(ccn2)-c2ncnc(n2)Nc2cccc(c2)C1 [Compound 10] | < 10 nM | 4 (Score 4 = >80% inhibition) | – | –
2 | O=C1NCCCc2cc(ccn2)-c2ncnc(n2)Nc2cccc(c2)CN2CCCC12 (stereo not drawn) [Compound 12] | 100 to 1000 nM | 1 (Score 1 = 10-30% inhibition) | – | –
3 | O=C1CN2CCN(CC2)Cc2cccc(c2)Nc2ncnc(n2)-c2ccnc(c2)CCCN1 [Compound 9] | – | 1 (Score 1 = 10-30% inhibition) | 4 (Score 4=pIC50 value>8) | –
4 | CN1CC(=O)NCC#Cc2cc(ccn2)-c2ncnc(n2)Nc2cccc(c2)C1 [Compound 1] | < 10 nM | 4 (Score 4 = >80% inhibition) | – | 267.5 to 269.3 °C
5 | CN1CC(=O)NC/C(Cl)=C/c2cc(ccn2)-c2ncnc(n2)Nc2cccc(c2)C1 [Compound 2] | < 10 nM | 4 (Score 4 = >80% inhibition) | – | –
6 | O=C1NCCCc2cc(ccn2)-c2ncnc(n2)Nc2cccc(c2)CN2C[C@H](O)C[C@@H]12 [Compound 14] | 10 to 100 nM | 1 (Score 1 = 10-30% inhibition) | – | –
7 | CCN1CCCc2cc(ccn2)-c2ncnc(n2)Nc2cccc(c2)CCNC(=O)C1 [Compound 30] | < 10 nM | 1 (Score 1 = 10-30% inhibition) | – | –
8 | O=C1NCCCc2cc(ccn2)-c2ncnc(n2)Nc2cccc(c2)CN2CCCC1C2 (stereo not drawn) [Compound 15] | 10 to 100 nM | 1 (Score 1 = 10-30% inhibition) | – | –
9 | CN1CCN(CCN2CCC(=O)NCCCc3cc(ccn3)-c3ncnc(n3)Nc3cccc(c3)C2)CC1 [Compound 11] | 100 to 1000 nM | 1 (Score 1 = 10-30% inhibition) | – | –
10 | CN1CCC(=O)NCCCc2cc(ccn2)-c2ncnc(n2)Nc2cccc(c2)C1 [Compound 3] | 10 to 100 nM | 2 (Score 2 = 30-60% inhibition) | – | –
11 | CN1CC(=O)NCCCc2cc(ccn2)-c2ncnc(n2)Nc2cccc(c2)C1 [Compound 8] | – | 2 (Score 2 = 30-60% inhibition) | 4 (Score 4=pIC50 value>8) | –
12 | CN1CCCc2cc(ccn2)-c2ncnc(n2)Nc2cccc(c2)CNC(=O)C1 [Compound 7] | < 10 nM | 1 (Score 1 = 10-30% inhibition) | – | 201.9 to 203.3 °C
13 | CN1CCCC(=O)NCCCc2cc(ccn2)-c2ncnc(n2)Nc2cccc(c2)C1 [Compound 13] | 10 to 100 nM | 1 (Score 1 = 10-30% inhibition) | – | –

More lines, now with the values ahead:

Row | IC50 (GSK-3β) | C3.7 score (CDK6/cyclinD3 human) | C1 Score β (GSK-3β) | melting point | SMILES
14 | < 10 nM | 2 (Score 2 = 30-60% inhibition) | – | – | CCN1CC(=O)NCCCc2cc(ccn2)-c2ncnc(n2)Nc2cc(Cl)cc(c2)C1 [Compound 34]
15 | < 10 nM | 1 (Score 1 = 10-30% inhibition) | – | – | O=C1CN2CCN(CC2)Cc2cccc(c2)Nc2ncnc(n2)-c2ccnc(c2)CCCN1 [Compound 36]
16 | 10 to 100 nM | 3 (Score 3 = 60-80% inhibition) | – | – | O=C1CCN2CCN(CC2)Cc2cccc(c2)Nc2ncnc(n2)-c2ccnc(c2)CCCN1 [Compound 35]
17 | < 10 nM | 3 (Score 3 = 60-80% inhibition) | – | – | CN1CC(=O)NCCCc2cc(ccn2)-c2ncnc(n2)Nc2cc(Cl)cc(c2)C1 [Compound 33]
18 | < 10 nM | 1 (Score 1 = 10-30% inhibition) | – | – | O=C1CN2CCN(CC2)Cc2cc(Cl)cc(c2)Nc2ncnc(n2)-c2ccnc(c2)CCCN1 [Compound 41]
19 | – | 1 (Score 1 = 10-30% inhibition) | – | – | O=C1NCCCc2cccc(c2)-c2ncnc(n2)Nc2cccc(c2)CN[C@H]1CO [Compound 46]
20 | – | 1 (Score 1 = 10-30% inhibition) | – | – | O=C1NCCCc2cncc(c2)-c2ncnc(n2)Nc2cccc(c2)CN[C@H]1CO [Compound 81]
21 | – | 2 (Score 2 = 30-60% inhibition) | – | – | O=C1NCCCc2cc(ccc2F)-c2ncnc(n2)Nc2cc(Cl)cc(c2)CN[C@H]1CO [Compound 71]
22 | – | 1 (Score 1 = 10-30% inhibition) | – | – | CCN1CC(=O)NCCCc2cccc(c2)-c2ncnc(n2)Nc2cccc(c2)C1 [Compound 54]

Source: patent publication US8778919B2, “Cyclic anilino—pyridinotriazines” (Janssen Pharmaceutica NV, priority 2005, dated 2014)
